Experimental data: the NIST ThermoML archive (doi:10.1016/j.jct.2017.08.035)
Numbers after ± are expanded uncertainties.

Details: for surface tension liquid-gas: Maximal bubble pressure; for mass density: 100 kPa, Liquid, Vibrating tube method

| SMILES | surface tension liquid-gas (298.15 K) | mass density (298.15 K) | surface tension liquid-gas (303.15 K) | mass density (303.15 K) | surface tension liquid-gas (308.15 K) | mass density (308.15 K) | surface tension liquid-gas (313.15 K) | mass density (313.15 K) | surface tension liquid-gas (318.15 K) | mass density (318.15 K) | surface tension liquid-gas (323.15 K) | mass density (323.15 K) | surface tension liquid-gas (328.15 K) | mass density (328.15 K) | surface tension liquid-gas (333.15 K) | mass density (333.15 K) | surface tension liquid-gas (338.15 K) | mass density (338.15 K) |
| --- | --- | --- | --- | --- | --- | --- | --- | --- | --- | --- | --- | --- | --- | --- | --- | --- | --- | --- |
| CCn1cc[n+](CCOC)c1.O=S(=O)([N-]S(=O)(=O)C(F)(F)F)C(F)(F)F | 36 ± 0.4 mN/m | 1463.13 ± 2.4 kg/m3 | 35.8 ± 0.4 mN/m | 1458.11 ± 2.4 kg/m3 | 35.5 ± 0.4 mN/m | 1453.11 ± 2.4 kg/m3 | 35.2 ± 0.4 mN/m | 1448.12 ± 2.4 kg/m3 | 35 ± 0.4 mN/m | 1443.16 ± 2.4 kg/m3 | 34.7 ± 0.4 mN/m | 1438.21 ± 2.4 kg/m3 | 34.4 ± 0.4 mN/m | 1433.29 ± 2.4 kg/m3 | 34.1 ± 0.4 mN/m | 1428.39 ± 2.4 kg/m3 | 33.9 ± 0.4 mN/m | 1423.51 ± 2.4 kg/m3 |
| CCn1cc[n+](CCOC)c1.O=S(=O)([O-])C(F)(F)F | 38 ± 0.4 mN/m | 1355.89 ± 4.6 kg/m3 | 37.7 ± 0.4 mN/m | 1351.61 ± 4.6 kg/m3 | 37.4 ± 0.4 mN/m | 1347.35 ± 4.6 kg/m3 | 37.1 ± 0.4 mN/m | 1343.11 ± 4.6 kg/m3 | 36.9 ± 0.4 mN/m | 1338.88 ± 4.6 kg/m3 | 36.5 ± 0.4 mN/m | 1334.67 ± 4.6 kg/m3 | 36.3 ± 0.4 mN/m | 1330.48 ± 4.6 kg/m3 | 36.1 ± 0.4 mN/m | 1326.3 ± 4.6 kg/m3 | 35.8 ± 0.4 mN/m | 1322.12 ± 4.6 kg/m3 |
| CC(=O)[O-].CCn1cc[n+](CCOC)c1 [1-ethyl-3-(2-methoxyethyl)imidazolium acetate] | 46 ± 0.5 mN/m | 1192.38 ± 4.6 kg/m3 | 45.7 ± 0.5 mN/m | 1189.07 ± 4.6 kg/m3 | 45.4 ± 0.5 mN/m | 1185.74 ± 4.6 kg/m3 | 45.1 ± 0.5 mN/m | 1182.43 ± 4.6 kg/m3 | 44.8 ± 0.5 mN/m | 1179.14 ± 4.6 kg/m3 | 44.5 ± 0.5 mN/m | 1175.86 ± 4.6 kg/m3 | 44.3 ± 0.5 mN/m | 1172.58 ± 4.6 kg/m3 | 44.1 ± 0.5 mN/m | 1169.35 ± 4.6 kg/m3 | 43.9 ± 0.5 mN/m | 1166.13 ± 4.6 kg/m3 |
| CCn1cc[n+](CCOC)c1.N#C[N-]C#N [1-ethyl-3-(2-methoxyethyl)imidazolium dicyanamide] | 44.6 ± 0.5 mN/m | 1113.6 ± 4.6 kg/m3 | 44.3 ± 0.5 mN/m | 1110.21 ± 4.6 kg/m3 | 44 ± 0.5 mN/m | 1106.83 ± 4.6 kg/m3 | 43.7 ± 0.5 mN/m | 1103.48 ± 4.6 kg/m3 | 43.4 ± 0.5 mN/m | 1100.15 ± 4.6 kg/m3 | 43.1 ± 0.5 mN/m | 1096.84 ± 4.6 kg/m3 | 42.9 ± 0.5 mN/m | 1093.53 ± 4.6 kg/m3 | 42.7 ± 0.4 mN/m | 1090.26 ± 4.6 kg/m3 | 42.4 ± 0.4 mN/m | 1087 ± 4.6 kg/m3 |
| CCn1cc[n+](CCOC)c1.N#C[S-] [1-ethyl-3-(2-methoxyethyl)imidazolium thiocyanate] | 49 ± 0.5 mN/m | 1122.11 ± 4.6 kg/m3 | 48.7 ± 0.5 mN/m | 1118.89 ± 4.6 kg/m3 | 48.4 ± 0.5 mN/m | 1115.69 ± 4.6 kg/m3 | 48 ± 0.5 mN/m | 1112.52 ± 4.6 kg/m3 | 47.7 ± 0.5 mN/m | 1109.37 ± 4.6 kg/m3 | 47.5 ± 0.5 mN/m | 1106.23 ± 4.6 kg/m3 | 47.3 ± 0.5 mN/m | 1103.12 ± 4.6 kg/m3 | 47.1 ± 0.5 mN/m | 1100.01 ± 4.6 kg/m3 | 46.7 ± 0.5 mN/m | 1096.92 ± 4.6 kg/m3 |
